Assay results taken from BigSolDB 2.1.

## NC(=O)C[C@H](N)C(=O)O.O
In acetonitrile, 278.15 K
  solubility (mole fraction): 5.98e-06
In acetonitrile, 283.15 K
  solubility (mole fraction): 8.11e-06
In acetonitrile, 288.15 K
  solubility (mole fraction): 1.09e-05
In acetonitrile, 293.15 K
  solubility (mole fraction): 1.44e-05
In acetonitrile, 298.15 K
  solubility (mole fraction): 1.89e-05
In acetonitrile, 303.15 K
  solubility (mole fraction): 2.49e-05
In acetonitrile, 308.15 K
  solubility (mole fraction): 3.2e-05
In acetonitrile, 313.15 K
  solubility (mole fraction): 4.11e-05
In acetonitrile, 318.15 K
  solubility (mole fraction): 5.24e-05
In acetonitrile, 323.15 K
  solubility (mole fraction): 6.64e-05
In ethanol, 278.15 K
  solubility (mole fraction): 1.32e-05
In ethanol, 283.15 K
  solubility (mole fraction): 1.77e-05
In ethanol, 288.15 K
  solubility (mole fraction): 2.36e-05
In ethanol, 293.15 K
  solubility (mole fraction): 3.11e-05
In ethanol, 298.15 K
  solubility (mole fraction): 4.06e-05
In ethanol, 303.15 K
  solubility (mole fraction): 5.25e-05
In ethanol, 308.15 K
  solubility (mole fraction): 6.73e-05
In ethanol, 313.15 K
  solubility (mole fraction): 8.57e-05
In ethanol, 318.15 K
  solubility (mole fraction): 0.000108
In ethanol, 323.15 K
  solubility (mole fraction): 0.000136
In ethyl acetate, 278.15 K
  solubility (mole fraction): 1.25e-05
In ethyl acetate, 283.15 K
  solubility (mole fraction): 1.73e-05
In ethyl acetate, 288.15 K
  solubility (mole fraction): 2.29e-05
In ethyl acetate, 293.15 K
  solubility (mole fraction): 2.99e-05
In ethyl acetate, 298.15 K
  solubility (mole fraction): 3.89e-05
In ethyl acetate, 303.15 K
  solubility (mole fraction): 5.01e-05
In ethyl acetate, 308.15 K
  solubility (mole fraction): 6.39e-05
In ethyl acetate, 313.15 K
  solubility (mole fraction): 8.21e-05
In ethyl acetate, 318.15 K
  solubility (mole fraction): 0.000102
In ethyl acetate, 323.15 K
  solubility (mole fraction): 0.000129
In isobutanol, 278.15 K
  solubility (mole fraction): 1.11e-05
In isobutanol, 283.15 K
  solubility (mole fraction): 1.49e-05
In isobutanol, 288.15 K
  solubility (mole fraction): 1.97e-05
In isobutanol, 293.15 K
  solubility (mole fraction): 2.59e-05
In isobutanol, 298.15 K
  solubility (mole fraction): 3.38e-05
In isobutanol, 303.15 K
  solubility (mole fraction): 4.36e-05
In isobutanol, 308.15 K
  solubility (mole fraction): 5.58e-05
In isobutanol, 313.15 K
  solubility (mole fraction): 6.98e-05
In isobutanol, 318.15 K
  solubility (mole fraction): 8.97e-05
In isobutanol, 323.15 K
  solubility (mole fraction): 0.000114
In isopropanol, 278.15 K
  solubility (mole fraction): 9.67e-06
In isopropanol, 283.15 K
  solubility (mole fraction): 1.26e-05
In isopropanol, 288.15 K
  solubility (mole fraction): 1.65e-05
In isopropanol, 293.15 K
  solubility (mole fraction): 2.22e-05
In isopropanol, 298.15 K
  solubility (mole fraction): 2.91e-05
In isopropanol, 303.15 K
  solubility (mole fraction): 3.81e-05
In isopropanol, 308.15 K
  solubility (mole fraction): 4.96e-05
In isopropanol, 313.15 K
  solubility (mole fraction): 6.19e-05
In isopropanol, 318.15 K
  solubility (mole fraction): 8.17e-05
In isopropanol, 323.15 K
  solubility (mole fraction): 0.000104
In methanol, 278.15 K
  solubility (mole fraction): 1.54e-05
In methanol, 283.15 K
  solubility (mole fraction): 2.04e-05
In methanol, 288.15 K
  solubility (mole fraction): 2.7e-05
In methanol, 293.15 K
  solubility (mole fraction): 3.52e-05
In methanol, 298.15 K
  solubility (mole fraction): 4.56e-05
In methanol, 303.15 K
  solubility (mole fraction): 5.86e-05
In methanol, 308.15 K
  solubility (mole fraction): 7.42e-05
In methanol, 313.15 K
  solubility (mole fraction): 9.4e-05
In methanol, 318.15 K
  solubility (mole fraction): 0.000118
In methanol, 323.15 K
  solubility (mole fraction): 0.000147
